From patent publication US8138189B2, “Substituted benzene compounds as modulators of the glucocorticoid receptor” (Hoffman-La Roche Inc., priority 2009, dated 2012)

target: T1, full length human recombinant glucocorticoid receptor (Homo sapiens, UniProt P04150); experiment: Glucocorticoid Receptor Binding Assay (fluorescence polarization competitor assay, Fluormone GS Far Red tracer)
T1 construct: partially purified full length human recombinant glucocorticoid receptor; purchased Panvera/Invitrogen PV4302
T1 sequence (P04150 1-777): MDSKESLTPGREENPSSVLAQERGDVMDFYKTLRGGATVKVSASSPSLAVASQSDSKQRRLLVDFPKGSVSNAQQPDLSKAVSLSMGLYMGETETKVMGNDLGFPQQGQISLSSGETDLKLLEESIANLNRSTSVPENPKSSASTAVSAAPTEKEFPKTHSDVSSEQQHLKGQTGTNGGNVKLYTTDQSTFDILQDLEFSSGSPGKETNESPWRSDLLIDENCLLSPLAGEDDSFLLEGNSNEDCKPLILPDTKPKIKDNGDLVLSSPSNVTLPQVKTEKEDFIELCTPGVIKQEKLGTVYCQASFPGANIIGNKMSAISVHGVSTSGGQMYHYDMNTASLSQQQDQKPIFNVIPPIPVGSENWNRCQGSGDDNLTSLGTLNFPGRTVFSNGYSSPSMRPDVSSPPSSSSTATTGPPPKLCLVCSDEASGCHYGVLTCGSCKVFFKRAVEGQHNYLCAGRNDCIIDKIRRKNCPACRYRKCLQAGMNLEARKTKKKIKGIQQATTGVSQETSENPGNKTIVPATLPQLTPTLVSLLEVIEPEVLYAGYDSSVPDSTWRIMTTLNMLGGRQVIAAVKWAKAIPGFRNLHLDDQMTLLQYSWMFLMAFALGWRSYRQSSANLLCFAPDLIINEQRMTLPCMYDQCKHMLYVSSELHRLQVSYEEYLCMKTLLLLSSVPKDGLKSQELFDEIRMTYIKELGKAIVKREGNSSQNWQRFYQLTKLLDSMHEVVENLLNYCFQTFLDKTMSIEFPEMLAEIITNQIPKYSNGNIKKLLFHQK
In short: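 Partially purified full-length recombinant human GR with a stabilizing coactivator peptide was incubated with Fluormone GS Far Red tracer and serially diluted compound for 3 h at 22 °C in the dark, pH 7.4. Fluorescence polarization was read at 610-660 nm. IC50 came from sigmoidal fitting, and Ki from Cheng-Prusoff.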

Row | Ki [nM] | Structure (SMILES)
1 | 2.9 | COC(=O)c1ccc(Oc2ccc([C@H](C)[C@](O)(c3cc(C)c(=O)n(C)c3)C(F)(F)F)c(Cl)c2)nc1 (relative stereo) [Example 217, 6-{3-Chloro-4-[2-(1,5-dimethyl-6-oxo-1,6-dihydro-pyridin-3-yl)-3,3,3-trifluoro-2-hydroxy-1-methyl-propyl]-phenoxy}-nicotinic acid methyl ester]
2 | 1.7 | Cc1cc([C@](O)([C@H](C)c2ccc(Oc3ncc(C(=O)O)cc3Cl)cc2Cl)C(F)(F)F)cnc1C#N (relative stereo) [Example 231, 5-Chloro-6-{3-chloro-4-[2-(6-cyano-5-methyl-pyridin-3-yl)-3,3,3-trifluoro-2-hydroxy-1-methyl-propyl]-phenoxy}-nicotinic acid]
3 | 0.5 | Cc1cc([C@@](O)([C@@H](C)c2ccc(Oc3ncc(C(=O)O)cc3Cl)cc2Cl)C(F)(F)F)cn(C)c1=O (stereo in doubt) [Example 251, 5-Chloro-6-{3-chloro-4-[2-(1,5-dimethyl-6-oxo-1,6-dihydro-pyridin-3-yl)-3,3,3-trifluoro-2-hydroxy-1-methyl-propyl]-phenoxy}-nicotinic acid]
4 | 0.6 | C[C@@H](c1ccc(Oc2ccc(C(=O)O)c(Cl)c2)cc1Cl)[C@](O)(c1cc(Cl)c(=O)n(C)c1)C(F)(F)F (stereo in doubt) [Example 222, 2-Chloro-4-{3-chloro-4-[2-(5-chloro-1-methyl-6-oxo-1,6-dihydro-pyridin-3-yl)-3,3,3-trifluoro-2-hydroxy-1-methyl-propyl]-phenoxy}-benzoic acid]
5 | 14.3 | C[C@H](c1ccc(Oc2ncc(C(=O)O)cc2Cl)cc1Cl)[C@@](O)(c1ccc2nccnc2c1)C(F)(F)F (relative stereo) [Example 227, 5-Chloro-6-[3-chloro-4-(3,3,3-trifluoro-2-hydroxy-1-methyl-2-quinoxalin-6-yl-propyl)-phenoxy]-nicotinic acid]
6 | 0.4 | Cc1cc([C@@](O)([C@@H](C)c2ccc(Oc3ccc(C(=O)O)c(F)c3)cc2Cl)C(F)(F)F)cn(C)c1=O (racemic) [Example 204, 4-{3-Chloro-4-[2-(1,5-dimethyl-6-oxo-1,6-dihydro-pyridin-3-yl)-3,3,3-trifluoro-2-hydroxy-1-methyl-propyl]-phenoxy}-2-fluoro-benzoic acid]
7 | 82.2 | C[C@@H](c1ccc(OC(C)(C)C(=O)O)c(Cl)c1Cl)[C@](O)(c1ccc(=O)n(C)c1)C(F)(F)F (stereo in doubt) [Example 240, 2-{2,3-Dichloro-4-[3,3,3-trifluoro-2-hydroxy-1-methyl-2-(1-methyl-6-oxo-1,6-dihydro-pyridin-3-yl)-propyl]-phenoxy}-2-methyl-propionic acid]
8 | 1.8 | Cc1cc([C@@](O)([C@@H](C)c2ccc(Oc3ncc(C(=O)O)c(C(F)(F)F)n3)cc2Cl)C(F)(F)F)cn(C)c1=O (stereo in doubt) [Example 243, 2-{3-Chloro-4-[2-(1,5-dimethyl-6-oxo-1,6-dihydro-pyridin-3-yl)-3,3,3-trifluoro-2-hydroxy-1-methyl-propyl]-phenoxy}-4-trifluoromethyl-pyrimidine-5-carboxylic acid]
9 | 9.5 | Cc1cc([C@@](O)([C@@H](C)c2ccc(Oc3ncc(C(=O)O)cn3)cc2Cl)C(F)(F)F)cn(C)c1=O (stereo in doubt) [Example 254, 2-{3-Chloro-4-[2-(1,5-dimethyl-6-oxo-1,6-dihydro-pyridin-3-yl)-3,3,3-trifluoro-2-hydroxy-1-methyl-propyl]-phenoxy}-pyrimidine-5-carboxylic acid]

The next lines start with the molecule.

Row | Structure (SMILES) | Ki [nM]
10 | CC(c1ccc(Oc2ccc(C(=O)O)cc2)cc1Cl)C(O)(c1ccnc(Cl)c1)C(F)(F)F (stereo not drawn) [Example 80, 4-{3-Chloro-4-[2-(2-chloro-pyridin-4-yl)-3,3,3-trifluoro-2-hydroxy-1-methyl-propyl]-phenoxy}-benzoic acid] | 2.1
11 | CC(c1ccc(Oc2ccc(C(=O)O)nc2)cc1Cl)C(O)(c1ccnc(Cl)c1)C(F)(F)F (stereo not drawn) [Example 81, 5-{3-Chloro-4-[2-(2-chloro-pyridin-4-yl)-3,3,3-trifluoro-2-hydroxy-1-methyl-propyl]-phenoxy}-pyridine-2-carboxylic acid] | 26.5
12 | CCOC(=O)c1ccc(COc2ccc(C(C)C(O)(c3ccnc(C)c3)C(F)(F)F)c(Cl)c2)cc1 (stereo not drawn) [Example 93, 4-{3-Chloro-4-[3,3,3-trifluoro-2-hydroxy-1-methyl-2-(2-methyl-pyridin-4-yl)-propyl]-phenoxymethyl}-benzoic acid ethyl ester] | 8.2
13 | C[C@@H](c1ccc(-c2ccc(C(=O)O)c(F)c2)cc1Cl)[C@](O)(c1cccc2cnccc12)C(F)(F)F (stereo in doubt) [Example 150, 3′-Chloro-3-fluoro-4′-(3,3,3-trifluoro-2-hydroxy-2-isoquinolin-5-yl-1-methyl-propyl)-biphenyl-4-carboxylic acid] | 9.5
14 | CC(c1ccc(Oc2ccc(Cl)c(C(=O)O)c2)cc1Cl)C(O)(c1ccnc(Cl)c1)C(F)(F)F (stereo not drawn) [Example 90, 2-Chloro-5-{3-chloro-4-[2-(2-chloro-pyridin-4-yl)-3,3,3-trifluoro-2-hydroxy-1-methyl-propyl]-phenoxy}-benzoic acid] | 4.5
15 | C[C@H](c1ccc(OCc2ccc(C(=O)O)cc2)cc1Cl)[C@@](O)(c1ccnc(Cl)c1)C(F)(F)F (stereo in doubt) [Example 20, 4-{3-Chloro-4-[2-(2-chloro-pyridin-4-yl)-3,3,3-trifluoro-2-hydroxy-1-methyl-propyl]-phenoxymethyl}-benzoic acid] | 2.9
16 | CCn1cc([C@@](O)([C@@H](C)c2ccc(-c3ccc(C(=O)OC)c(F)c3)cc2Cl)C(F)(F)F)ccc1=O (stereo in doubt) [Example 185, 3′-Chloro-4′-[2-(1-ethyl-6-oxo-1,6-dihydropyridin-3-yl)-3,3,3-trifluoro-2-hydroxy-1-methyl-propyl]-3-fluoro-biphenyl-4-carboxylic acid methyl ester] | 12.1
17 | CC(c1ccc(OCc2ccc(C(=O)O)cn2)cc1Cl)C(O)(c1ccnc(Cl)c1)C(F)(F)F (stereo not drawn) [Example 111, 6-{3-Chloro-4-[2-(2-chloro-pyridin-4-yl)-3,3,3-trifluoro-2-hydroxy-1-methyl-propyl]-phenoxymethyl}-nicotinic acid] | 13
18 | COC(=O)c1ccc(-c2ccc([C@H](C)[C@](O)(c3ccc(OC)nc3)C(F)(F)F)c(Cl)c2)cc1Cl (stereo in doubt) [Example 178, 3,3′-Dichloro-4′-[3,3,3-trifluoro-2-hydroxy-2-(6-methoxy-pyridin-3-yl)-1-methyl-propyl]-biphenyl-4-carboxylic acid methyl ester] | 72.1
19 | C[C@@H](c1ccc(OCc2ccc(CC(=O)O)cc2)cc1Cl)[C@](O)(c1cccc2cnccc12)C(F)(F)F (stereo in doubt) [Example 149, {4-[3-Chloro-4-(3,3,3-trifluoro-2-hydroxy-2-isoquinolin-5-yl-1-methyl-propyl)-phenoxymethyl]-phenyl}-acetic acid] | 1.8
20 | COC(=O)c1ccc(COc2ccc([C@@H](C)[C@@](O)(c3ccnc(Cl)c3)C(F)(F)F)c(Cl)c2)c(OC)c1 (relative stereo) [Example 21, 4-{3-Chloro-4-[2-(2-chloro-pyridin-4-yl)-3,3,3-trifluoro-2-hydroxy-1-methyl-propyl]-phenoxymethyl}-3-methoxy-benzoic acid methyl ester] | 7.5
21 | C[C@H](c1cc(Oc2ccc(C(=O)O)nn2)ccc1Cl)[C@@](O)(c1ccnc(Cl)c1)C(F)(F)F (stereo in doubt) [Example 139, 6-{4-Chloro-3-[2-(2-chloro-pyridin-4-yl)-3,3,3-trifluoro-2-hydroxy-1-methyl-propyl]-phenoxy}-pyridazine-3-carboxylic acid] | 404
22 | C[C@H](c1ccc(OCc2ccc(CC(=O)O)cc2)cc1Cl)[C@@](O)(c1ccnc(Cl)c1)C(F)(F)F (stereo in doubt) [Example 24, (4-{3-Chloro-4-[2-(2-chloro-pyridin-4-yl)-3,3,3-trifluoro-2-hydroxy-1-methyl-propyl]-phenoxymethyl}-phenyl)-acetic acid] | 4.7
23 | CC(c1ccc(Oc2ccc(C(=O)O)cc2Cl)cc1Cl)C(O)(c1ccnc(Cl)c1)C(F)(F)F (stereo not drawn) [Example 89, 3-Chloro-4-{3-chloro-4-[2-(2-chloro-pyridin-4-yl)-3,3,3-trifluoro-2-hydroxy-1-methyl-propyl]-phenoxy}-benzoic acid] | 3.4
24 | CCOC(=O)COc1ccc(Oc2ccc([C@@H](C)[C@@](O)(c3ccc(=O)n(C)c3)C(F)(F)F)c(Cl)c2)cc1 (relative stereo) [Example 159, (4-{3-Chloro-4-[3,3,3-trifluoro-2-hydroxy-1-methyl-2-(1-methyl-6-oxo-1,6-dihydro-pyridin-3-yl)-propyl]-phenoxy}-phenoxy)-acetic acid ethyl ester] | 2
